This series can be described thus: Plasma pharmacokinetics of simvastatin and simvastatin hydroxy acid after oral simvastatin alone and combined with imatinib in CML patients (LC/MS/MS). To be noted: for t1/2: simvastatin in plasma, mean±s.d., in h.

`CCC(C)(C)C(=O)O[C@H]1C[C@@H](C)C=C2C=C[C@H](C)[C@H](CC[C@@H]3C[C@@H](O)CC(=O)O3)[C@H]21` [Simvastatin]: where the note is “both, human, plasma, po, 40 mg”, the Tmax was determined as 1 h, the Vd/F amounted to 3120 ± 2750 L and the half-life is 1.4 h. Under “simvastatin 40 mg coadministered with imatinib 400 mg, P<0.001”, the “mean reduction of total-body clearance from plasma (CL/F)” value worked out at 70%. The t1/2 (40 mg simvastatin oral alone (day 1)) is 1.4±0.8. In addition, the t1/2 (40 mg simvastatin oral plus 400 mg imatinib oral (day 8)) was determined as 2.7±1.3.

(Values after PMC2394453 (British Journal of Cancer, 2003).)
